From patent EP4700022A1, “CYP11A1 INHIBITORS AND USE THEREOF” (Xizang Haisco Pharmaceutical Co., Ltd., priority 2023, dated 2024)

Assays:
[1] = test system: testosterone level in NCI-H295R cells; assay: cells; assay type: cell-based; conditions: Homo sapiens, 72 h; for inhibition at 0.1 µM: read-out: Testosterone level in H295R (Elisa) inh.% 100 nM; for inhibition at 1 µM: read-out: Testosterone level in H295R (Elisa) inh.% 1000 nM; for IC50: read-out: IC50/nM
Description: 1. The purpose of the experimental study was intended to detect the testosterone level in the NCI-H295R cells by adopting the Enzyme linked immunosorbent assay (ELISA), so as to evaluate the inhibitory effects of the compounds on the testosterone level in the NCI-H295R cells. The H295R cells were purchased from ATCC, the cell complete medium contained DMEM: F12+ 10% FBS +0.00625 mg/ml insulin +0.00625 mg/ml transferrin+6.25 ng/ml selenium +1.25 mg/ml BSA+0.00535 mg/ml linoleic acid, and the cells were cultured in a 37°C, 5% CO2 incubator. The cells in the exponential growth phase were collected, and cultured in a cytokine-free medium (phenol red 1640-free +1% PS+10% css FBS+1.25 mg/ml BSA +0.00625 mg/ml insulin + 0.00625 mg/ml transferrin+6.25 ng/ml selenium+0.00535 mg/ml linoleic acid) for 3 days. The cells in the exponential growth phase were collected on the third day. The cell suspension was adjusted with a cytokine-free medium to a corresponding concentration and plated at 60000 cells/well, with the volume being 90 µL/well. Subsequently, 10 µL of the compounds at different concentrations was added and the plate was incubated in a CO2 incubator for 3 days. After the incubation was completed, according to the operation instructions for testosterone Elisa kit (Beyotime, PT872), 50 µL of the cell culture supernatant was collected from each well and centrifuged at 500 g for 5 min at room temperature and then the resulting supernatant was collected. The samples were added to the corresponding wells at 25 µl/well, and then formulated horseradish peroxidase labeled testosterone was added at 75 µl/well. The mixture was fully mixed for 10 seconds. The reaction wells were sealed with a plate-sealing film (white) and the mixture was incubated at room temperature in the dark for 120 min. The plate was washed 3 times with a volume of 300 µl per well, and then placed onto thick absorbent paper and dried. Chromogenic reagent TMB solution was added at 100 µl/well. The reaction wells were sealed with a plate-sealing film (white) and the mixture was incubated at room temperature in the dark for 15-20 min. Subsequently, a termination solution was added at 50 µl/well, and after the mixture was fully mixed, the absorbance value OD450 was immediately measured. The absorbance readings were processed using Graphpad Prim 8.0 software and S-shaped concentration curves were plotted and the IC50 values were calculated using a four-parameter non-linear regression model. The results were processed according to formula (1), the inhibition rate of the compound at different concentrations was calculated, and the IC50 value of the compound with an inhibition rate of 50% was calculated using Graphpad Prim 8.0 software, wherein RLU compound was the readout of the treated group, and RLU control was the average value of the solvent control group. Inhibition rate% = 100-RLUcompound /RLUcontrol × 100 [formula] Table 1. Inhibitory activity on testosterone level in NCI-H295R cells

[2] = Pharmacokinetic test in mice; assay type: in vivo; conditions: mouse, male ICR mice, plasma; for Vd: read-out: Vdss
Description: 4.1. Experimental animals: Male ICR mice, 20-25 g, 6 mice/compound, purchased from Chengdu Dossy Experimental Animals Co., Ltd.
4.2 Experimental design: on the day of the experiment, the ICR mice were randomly grouped according to their body weights. […] Table 5. Administration information
vehicle for intravenous administration: 5% DMA+5% HS-15+90% NS; vehicle for intragastric administration: 0.5% MC
Before and after administration, 0.06 mL of blood was taken from the orbit under isoflurane anesthesia and placed in an EDTAK2 centrifuge tube. The tube was centrifuged at 5000 rpm at 4°C for 10 min, and plasma was collected. […] Before analysis and detection, all samples were stored at -80°C, and the samples were quantitatively analyzed by LC-MS/MS. Table 6. Pharmacokinetic parameters of test compounds in plasma of mice

[3] = Pharmacokinetic test in rats; assay type: in vivo; conditions: rat, male SD rats, plasma; for Vd: read-out: Vdss
Description: 3.1 Experimental animals: Male SD rats (about 220 g, 6-8 weeks old, 6 rats/compound), purchased from Chengdu Dossy Experimental Animals Co., Ltd.
3.2 Experimental design: On the day of the experiment, the SD rats were randomly grouped by body weight. […] Table 3. Administration information
Before and after the administration, 0.1 ml of blood was taken from the orbit of the animals under isoflurane anesthesia and placed in an EDTAK2 centrifuge tube. The blood was centrifuged at 5000 rpm and 4°C for 10 min to collect plasma. […] Before analysis and detection, all samples were stored at -80°C. Table 4. Pharmacokinetic parameters of test compounds in plasma of rats

[4] = po, intragastric administration (10 mg/kg)
[5] = intravenous administration (2.5 mg/kg)

SMILES	inhibition at 0.1 µM [1]	inhibition at 1 µM [1]	further results
CS(=O)(=O)N1CCC(COc2ccc(CN3Cc4ccccc4C3)c3cccnc23)CC1 [Compound 4]	81.5%	89.2%	
CS(=O)(=O)N1CCC(CCOc2cc(CN3Cc4ccccc4C3)ccn2)CC1 [Compound 10]		85.4%	IC50 [1]: 81.9 nM
CS(=O)(=O)N1CCC(CCn2ccc(CN3Cc4ccc(C5CC5)cc4C3)cc2=O)CC1 [Compound 16]	51.7%	89.4%	
CS(=O)(=O)N1CCC(c2cc3oc(CN4Cc5ccc(C(F)(F)F)cc5C4)cc(=O)c3o2)CC1 [Compound 30]	59.1%	80.9%	IC50 [1]: 35.3 nM
O=C(OC1CC1)N1CCC(COc2ccc(CN3Cc4ccc(C(F)(F)F)cc4C3)c3ccc(F)nc23)CC1 [Compound 36]	56.8%	62%	
CS(=O)(=O)N1CC(OC(=O)N2CCC(COc3ccc(CN4Cc5ccc(C(F)(F)F)cc5C4)c4c3OCCO4)CC2)C1 [Compound 37]	87.1%	77%	
CS(=O)(=O)N1CC(OC(=O)N2CCC3(CC2)CC(Oc2cc(CN4Cc5ccc(C(F)(F)F)cc5C4)ccn2)C3)C1 [Compound 38]	68.2%	81%	AUC(0-t) [2, 4]: 13500 ng·h/mL; half-life [2, 4]: 3.65 h; AUC(0-t) [2, 5]: 4360 ng·h/mL; clearance [2, 5]: 9.45 mL/min/kg; half-life [2, 5]: 4.11 h; Vd [2, 5]: 2.78 L/kg
CS(=O)(=O)N1CC(OC(=O)N2CCC(COc3ccc(CN4Cc5ccc(C(F)(F)F)cc5C4)c4c3S(=O)(=O)CC4)CC2)C1 [Compound 39]	55.8%	74.6%	
O=C(OC1CC1)N1CCC(CCOc2cc(CN3Cc4ccc(C(F)(F)F)cc4C3)ccn2)CC1 [Compound 40]			AUC(0-t) [3, 4]: 4210 ng·h/mL; half-life [3, 4]: 11.1 h; AUC(0-t) [3, 5]: 1950 ng·h/mL; clearance [3, 5]: 19.1 mL/min/kg; half-life [3, 5]: 9.77 h; Vd [3, 5]: 9.21 L/kg; IC50 [1]: 77 nM
CS(=O)(=O)N1CC(OC(=O)N2CCC(CCOc3cc(CN4Cc5ccsc5C4)ccn3)CC2)C1 [Compound 41]	51.5%	67.9%	
O=C(OC1CC1)N1CCC(Cc2cc3oc(CN4Cc5ccc(C(F)(F)F)cc5C4)cc(=O)c3o2)CC1 [Compound 42]	76.9%	82.6%	
O=C(OC1CC1)N1CCC(/C=C/c2coc(CN3Cc4cc5c(cc4C3)CCC5)cc2=O)CC1 [Compound 43]	75.6%	77.8%	
O=C(OC1CC1)N1CCC2(CC1)CC(Oc1cc(CN3Cc4ccc(C(F)(F)F)cc4C3)ccn1)C2 [Compound 48]	77.5%	78.2%	
CS(=O)(=O)N1CC(OC(=O)N2CCC(CCOc3cc(CN4Cc5ccc(C(F)(F)F)cc5C4)ccn3)CC2)C1 [Compound 49]	57.7%	65.2%	
CS(=O)(=O)N1CCC(CCOc2cc(CN3Cc4ccc(C5CC5)cc4C3)ccn2)CC1 [Compound 50]	51.7%	89.4%	IC50 [1]: 130 nM; AUC(0-t) [2, 4]: 7780 ng·h/mL; half-life [2, 4]: 2.73 h; AUC(0-t) [2, 5]: 2360 ng·h/mL; clearance [2, 5]: 17.3 mL/min/kg; half-life [2, 5]: 3 h; Vd [2, 5]: 3.37 L/kg
O=C(N[C@H]1CC[C@H](CCOc2cc(CN3Cc4ccc(C(F)(F)F)cc4C3)ccn2)CC1)OC1CC1 [Compound 51]	74.4%	78.5%	AUC(0-t) [3, 4]: 13600 ng·h/mL; half-life [3, 4]: 9.63 h; AUC(0-t) [3, 5]: 4000 ng·h/mL; clearance [3, 5]: 9.32 mL/min/kg; half-life [3, 5]: 8.52 h; Vd [3, 5]: 4.58 L/kg
N#Cc1cc(CN2Cc3ccc(C(F)(F)F)cc3C2)cc2cc(C3CCN(C(=O)OC4CC4)CC3)oc12 [Compound 53]	72.5%	85.5%	AUC(0-t) [3, 4]: 6750 ng·h/mL; half-life [3, 4]: 8.13 h; AUC(0-t) [3, 5]: 3110 ng·h/mL; clearance [3, 5]: 11 mL/min/kg; half-life [3, 5]: 13.2 h; Vd [3, 5]: 8.06 L/kg
COc1cc(CN2Cc3ccc(C(F)(F)F)cc3C2)cc2cc(C3CCN(C(=O)OC4CC4)CC3)oc12 [Compound 54]	59.1%	78.4%	AUC(0-t) [3, 4]: 5840 ng·h/mL; half-life [3, 4]: 7.74 h; AUC(0-t) [3, 5]: 3560 ng·h/mL; clearance [3, 5]: 10.3 mL/min/kg; half-life [3, 5]: 10.3 h; Vd [3, 5]: 6.41 L/kg
O=C(OC1CC1)N1CCC(CCOc2ccnc(CN3Cc4ccc(C(F)(F)F)cc4C3)c2)CC1 [Compound 59]	60%	76%	
O=C(N[C@H]1CC[C@H](CCOc2cc(CN3Cc4ccc(C5CC5)cc4C3)ccn2)CC1)C1CC1 [Compound 60]			AUC(0-t) [3, 4]: 27100 ng·h/mL; half-life [3, 4]: 2.36 h; AUC(0-t) [3, 5]: 6080 ng·h/mL; clearance [3, 5]: 6.8 mL/min/kg; half-life [3, 5]: 1.75 h; Vd [3, 5]: 0.951 L/kg
O=C(N[C@H]1CC[C@H](Cc2cc3oc(CN4Cc5ccc(C(F)(F)F)cc5C4)cc(=O)c3o2)CC1)C1CC1 [Compound 66]	54.8%	76.7%	
[2H]C([2H])([2H])C(=O)N[C@H]1CC[C@H](Cc2cc3oc(CN4Cc5ccc(C(F)(F)F)cc5C4)cc(=O)c3o2)CC1 [Compound 67]	52%	72%	
N#Cc1cc(CN2Cc3ccc(C(F)(F)F)cc3C2)cc2cc([C@H]3CC[C@H](NC(=O)C4CC4)CC3)oc12 [Compound 69]	79%	80%	
O=C(N[C@H]1CC[C@H](CCOc2cc(CN3Cc4ccc(C(F)(F)F)cc4C3)ccn2)CC1)[C@H]1CC1(F)F [Compound 70]	68.9%	76.3%	
O=C(N[C@H]1CC[C@H](c2cc3oc(CN4Cc5ccc(C(F)(F)F)cc5C4)cc(=O)c3o2)CC1)C1CC(F)(F)C1 [Compound 72]	81%	88%	
COc1nc(CN2Cc3ccc(C(F)(F)F)cc3C2)ccc1OCC1CCN(C(=O)C2CC(F)(F)C2)CC1 [Compound 75]	76.2%	90.4%	
O=C(CC(F)(F)F)N[C@H]1CC[C@H](CCOc2cc(CN3Cc4ccc(C(F)(F)F)cc4C3)ccn2)CC1 [Compound 76]	70%	78%	
CS(=O)(=O)N1CCC(C2=COc3cc(CN4Cc5ccc(C(F)(F)F)cc5C4)ccc3O2)CC1 [Compound 84]	74%	83%	IC50 [1]: 38 nM
